Assay results as given in patent US11932604B1, “9-(2-hydroxyphenyl)-10-[3-(dimethylamino)propyl]- 3,4,6,7,9,10-hexahydroacridine-1,8(2H,5H)-dione as an antimicrobial compound” (KING FAISAL UNIVERSITY, priority 2023, dated 2024).

Assays:
Conditions in all cases: after 10, 20, 40 and 60 minutes at all dilutions 1:100 to 1:800
Ps. Aeruginosa = assay: Antimicrobial activity by agar dilution, Ps. Aeruginosa; format: cell-based, Pseudomonas aeruginosa
Experimental: (§1) The antimicrobial properties of the synthesized compound 9-(2-hydroxyphenyl)-10-[3-(dimethylamino)propyl]-3,4,6,7,9,10-hexahydroacridine-1,8(2H,5H)-dione were studied by the method of agar dilution. Test solutions of each compound were prepared in a concentration of 1% using dimethylformamide as a solvent. Then they were diluted in a physiological solution to obtain the final experimental dilutions 1:100, 1:200, 1:400, and 1:800. The effect of these substances were compared with furacillin in a controllable study. The testing microbes used were gram positive bacteria St. Aereus, gram negative bacteria E. Coli and Ps. Aeruginosa, and Candida albicans fungi. The experiments used for this survey were meat-pentonlu agar (EPA) for cultivation of bacteria and Saburo environment for fungi. Each experiment used 1 ml of test solution on each plate 500 min. Add 2 drops of emulsified with microbes feel. All experimental samples were taken from the agar after 10, 20, 40, 60 minutes in the environment on the basis of Patrk planted. Bacteria were cultivated at a temperature of 37° C. for 1 day and the mushroom was kept in a thermostat for […] at a temperature of 28° C. Then the results were checked.

E. Coli = assay: Antimicrobial activity by agar dilution, E. Coli; format: cell-based, Escherichia coli
Experimental: as §1

Candida albicans = assay: Antimicrobial activity by agar dilution, Candida albicans; format: cell-based
Experimental: as §1

St. Aereus = assay: Antimicrobial activity by agar dilution, St. Aereus; format: cell-based, Staphylococcus aureus
Experimental: as §1

CN(C)CCCN1C2=C(C(=O)CCC2)C(c2ccccc2O)C2=C1CCCC2=O [9-(2-hydroxyphenyl)-10-[3-(dimethylamino)propyl]-3,4,6,7,9,10-hexahydroacridine-1,8(2H,5H)-dione]
highest inhibition activity: inhibition activity, Ps. Aeruginosa (Ps. Aeruginosa) | inhibition activity, E. Coli (E. Coli) | inhibition activity, Candida albicans (Candida albicans) | inhibition activity, St. Aereus (St. Aereus)
